Measurements from BindingDB's records for doi:10.1007/s00044-008-9125-0 (n/a, 2009).

Assay: Inhibition of Bos taurus (bovine) heart cAMP-dependent phosphodiesterase assessed as inhibition of cyclic AMP to 5' AMP after 20 min by spectrophotometry

IC50 [µM] | Structure (SMILES)
2640 | O=c1c2ccccc2nc(-c2ccccc2)n1-c1nc2ccc([N+](=O)[O-])cc2s1
2150 | CCOc1ccc2sc(-n3c(-c4ccccc4)nc4c(Br)cc(Br)cc4c3=O)nc2c1
2270 | Cc1ccc2sc(-n3c(-c4ccccc4)nc4ccccc4c3=O)nc2c1
2330 | COc1ccc2sc(-n3c(-c4ccccc4)nc4ccccc4c3=O)nc2c1
2120 | COc1ccc2nc(-n3c(-c4ccccc4)nc4c(Br)cc(Br)cc4c3=O)sc2c1
2420 | CCOc1cccc2sc(-n3c(-c4ccccc4)nc4ccccc4c3=O)nc12
2430 | CCOc1ccc2nc(-n3c(-c4ccccc4)nc4ccccc4c3=O)sc2c1
2020 | Cc1ccc2sc(-n3c(-c4ccccc4)nc4c(Br)cc(Br)cc4c3=O)nc2c1
2160 | CCOc1cccc2sc(-n3c(-c4ccccc4)nc4c(Br)cc(Br)cc4c3=O)nc12
1520 | O=c1c2cc(Br)cc(Br)c2nc(-c2ccccc2)n1-c1nc2ccc([N+](=O)[O-])cc2s1
1440 | O=c1c2cc(Br)cc(Br)c2nc(-c2ccccc2)n1-c1nc2cc(Cl)ccc2s1
2090 | COc1ccc2sc(-n3c(-c4ccccc4)nc4c(Br)cc(Br)cc4c3=O)nc2c1
2070 | COc1cccc2sc(-n3c(-c4ccccc4)nc4c(Br)cc(Br)cc4c3=O)nc12
1930 | O=c1c2cc(Br)cc(Br)c2nc(-c2ccccc2)n1-c1nc2ccccc2s1
2130 | O=c1c2ccccc2nc(-c2ccccc2)n1-c1nc2ccc(Br)cc2s1
2110 | O=c1c2ccccc2nc(-c2ccccc2)n1-c1nc2cc(Cl)ccc2s1
2320 | COc1cccc2sc(-n3c(-c4ccccc4)nc4ccccc4c3=O)nc12
2100 | O=c1c2ccccc2nc(-c2ccccc2)n1-c1nc2ccccc2s1
2420 | COc1ccc2nc(-n3c(-c4ccccc4)nc4ccccc4c3=O)sc2c1
2070 | Cc1cc(C)c2nc(-n3c(-c4ccccc4)nc4c(Br)cc(Br)cc4c3=O)sc2c1
2030 | Cc1cccc2sc(-n3c(-c4ccccc4)nc4c(Br)cc(Br)cc4c3=O)nc12
2410 | Cc1cc(C)c2nc(-n3c(-c4ccccc4)nc4ccccc4c3=O)sc2c1
2280 | Cc1cccc2sc(-n3c(-c4ccccc4)nc4ccccc4c3=O)nc12
2120 | CCOc1ccc2nc(-n3c(-c4ccccc4)nc4c(Br)cc(Br)cc4c3=O)sc2c1
2490 | CCOc1ccc2sc(-n3c(-c4ccccc4)nc4ccccc4c3=O)nc2c1
1640 | O=c1c2cc(Br)cc(Br)c2nc(-c2ccccc2)n1-c1nc2ccc(Br)cc2s1
